For this assay, the target named is T1, GPR158 (Homo sapiens, UniProt Q5T848).
T1 sequence (Q5T848 24-1215): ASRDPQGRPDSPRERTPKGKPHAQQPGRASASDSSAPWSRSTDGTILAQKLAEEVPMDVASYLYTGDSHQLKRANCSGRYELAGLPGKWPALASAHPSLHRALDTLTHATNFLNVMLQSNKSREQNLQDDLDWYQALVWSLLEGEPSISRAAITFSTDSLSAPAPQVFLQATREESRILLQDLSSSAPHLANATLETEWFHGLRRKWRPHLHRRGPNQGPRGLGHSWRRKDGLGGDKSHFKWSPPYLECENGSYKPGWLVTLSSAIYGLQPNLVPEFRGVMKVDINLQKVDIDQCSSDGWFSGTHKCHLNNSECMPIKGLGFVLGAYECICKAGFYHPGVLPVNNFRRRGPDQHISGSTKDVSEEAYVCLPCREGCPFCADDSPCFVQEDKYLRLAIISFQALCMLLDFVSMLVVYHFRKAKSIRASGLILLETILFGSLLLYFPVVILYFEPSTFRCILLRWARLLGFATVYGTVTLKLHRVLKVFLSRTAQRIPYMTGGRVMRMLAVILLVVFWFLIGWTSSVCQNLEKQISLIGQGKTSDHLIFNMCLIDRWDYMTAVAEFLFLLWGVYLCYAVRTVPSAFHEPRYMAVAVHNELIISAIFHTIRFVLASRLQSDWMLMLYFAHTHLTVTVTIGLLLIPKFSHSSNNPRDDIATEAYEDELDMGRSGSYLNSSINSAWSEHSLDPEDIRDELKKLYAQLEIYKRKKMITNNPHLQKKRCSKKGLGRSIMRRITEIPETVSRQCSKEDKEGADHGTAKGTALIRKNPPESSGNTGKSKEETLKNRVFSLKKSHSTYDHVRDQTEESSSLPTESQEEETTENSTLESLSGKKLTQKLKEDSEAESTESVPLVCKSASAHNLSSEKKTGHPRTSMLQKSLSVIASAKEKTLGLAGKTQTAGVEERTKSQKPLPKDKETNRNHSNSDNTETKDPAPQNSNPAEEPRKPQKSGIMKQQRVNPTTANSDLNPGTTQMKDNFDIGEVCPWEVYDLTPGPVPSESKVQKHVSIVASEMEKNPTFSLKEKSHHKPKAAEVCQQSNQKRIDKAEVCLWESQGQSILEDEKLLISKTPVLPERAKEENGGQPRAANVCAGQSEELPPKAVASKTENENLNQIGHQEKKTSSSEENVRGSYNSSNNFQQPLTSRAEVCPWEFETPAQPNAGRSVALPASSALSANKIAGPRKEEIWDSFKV
In words: Whole cell radioligand binding assay. Further details: expressed in transfected cells; host or cells: HEK293 (HEK293FT in the BRET methods). Particulars: HEK293 cells, across concentrations. As for the experimental part:
FIG. 7. Direct binding of glycine in whole cell radiolabeled assay a) Schematics of the radioligand binding assay. b) Quantification of ^3H-glycine binding to cells. Count Per minute (CPM) are measured and plotted. Data shown mean of 3 independent experiments error bars are s.e.m. values, n=3, *p=0.0403, ***p<0.001, ****p<0.0001 (two-way ANOVA) Columns with no fill (Control cells), columns with angled-line fill (GPR158 cells).
Next, the inventors performed radioligand binding assays examining binding of [^3H]-labeled glycine to HEK293 cells expressing GPR158 (FIG. 7A). […] The inventors have then isolated cellular membranes and conducted classical radioligand titration experiments (FIG. 9D). The inventors detected saturable [^3H]-glycine binding to membranes containing GPR158 is substantial excess over linear non-specific binding to membranes devoid of GPR158 (FIG. 9E). Scatchard analysis (FIG. 9F) estimated Kd of GPR158 for glycine to be ~3 μM. The inventors further performed binding competition experiments directly comparing the ability of glycine and taurine to displace [^3H]-labeled glycine bound to GPR158 (FIG. 8).
Whole cell binding was performed using cDNA of GPR158-venus or each GPR158-venus mutant or empty pcDNA3.1+ for ctrl cells. […] Finally radioactivity was measured using the liquid scintillation analyzer Tri-Carb 4910 TR.

With `NCC(=O)O` [^3H-glycine, [^3H]-glycine], the “binding to GPR158-expressing cells” value is “significant binding”.
